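Five compound concentrations were applied to cells in 96-well plates for 48 hours; endpoints were derived by simple linear interpolation of the resulting dose-response curve. TGI marks complete inhibition of growth.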
Experiments:
Experiment in all cases: NCI anticancer screen, dose series, 48 h
[1] = tested on: DMS 114 small cell lung
[2] = tested on: HOP-18 NSCLC
[3] = tested on: KM12 colon
[4] = tested on: LOX IMVI melanoma
[5] = tested on: OVCAR-4 ovarian
[6] = tested on: SR leukemia
[7] = tested on: UACC-62 melanoma
[8] = tested on: COLO 205 colon
[9] = tested on: KM20L2 colon
[10] = tested on: BT-549 breast
[11] = tested on: T-47D breast

Compound `COc1cc(/C=C/c2csnn2)cc(OC)c1OC` has a TGI [1] of over 100 µM, a TGI [2] of over 100 µM and a TGI [3] of over 100 µM. It also gave a TGI [4] of over 100 µM, a TGI [5] of over 100 µM and a TGI [6] of over 100 µM. For the same compound, the TGI [7] was over 100 µM.
`O=NN(CCCl)C(=O)NC1CCC(CC(=O)O)CC1` (configuration not stated) showed a TGI [8] of over 100 µM, a TGI [1] of over 100 µM and a TGI [2] of over 100 µM. For the same compound, the TGI [3] was over 100 µM, the TGI [9] was over 100 µM and the TGI [4] was over 100 µM. It also gave a TGI [5] of over 100 µM, a TGI [6] of over 100 µM and a TGI [7] of over 100 µM.
In the case of `CCOC(=O)/C(=C/c1ccccn1)C(=O)c1ccccc1`, the TGI [8] is reported as 28.3 µM, the TGI [1] is reported as 28.5 µM and the TGI [2] is reported as 32.7 µM. For the same compound, the TGI [3] was 26.4 µM, the TGI [9] was 51.6 µM and the TGI [4] was 6.94 µM. The TGI [5] was 36.8 µM, the TGI [6] was 14.2 µM and the TGI [7] was 24 µM.
Compound `O=C1CC(c2ccc(Cl)cc2)=Nc2ccccc2N1` has a TGI [8] of over 100 µM, a TGI [1] of over 100 µM and a TGI [2] of over 100 µM. The TGI [3] was over 100 µM, the TGI [9] was over 100 µM and the TGI [4] was 58.8 µM. For the same compound, the TGI [5] was over 100 µM, the TGI [6] was over 100 µM and the TGI [7] was over 100 µM.
`O=C1C2C3C=CC(C2C(=O)N1CO)C1C2C(=O)N(CO)C(=O)C2C31` (configuration not stated) was tested, and the TGI [8] was over 66.9 µM, the TGI [1] was over 58.6 µM and the TGI [2] was 76.7 µM. For the same compound, the TGI [3] was over 100 µM, the TGI [9] was over 31.6 µM and the TGI [4] was over 61.9 µM. It also gave a TGI [5] of over 64.7 µM, a TGI [6] of 45 µM and a TGI [7] of over 100 µM.
For `Cc1nc2ccccc2c(=O)n1/N=C(\N=Nc1ccccc1Cl)c1ccccc1Cl`, the TGI [8] was over 100 µM, the TGI [1] was over 100 µM and the TGI [2] was over 100 µM. The TGI [9] was over 100 µM, the TGI [4] was over 100 µM and the TGI [7] was over 100 µM.
For `CC(=O)OCC(=O)[C@@]1(O)CC[C@H]2[C@@H]3C[C@H](C)C4=CC(=O)C=C[C@]4(C)[C@@]3(F)[C@@H](O)C[C@@]21C`, the TGI [8] was over 100 µM, the TGI [1] was over 100 µM and the TGI [3] was over 100 µM. It also gave a TGI [9] of over 100 µM, a TGI [4] of over 100 µM and a TGI [5] of over 100 µM. It also gave a TGI [6] of over 100 µM and a TGI [7] of over 100 µM.
In the case of `CC(=O)Nc1ccc(C2CC(c3ccc([N+](=O)[O-])cc3)=Nc3ccccc3S2=O)cc1` (configuration not stated), the TGI [8] is reported as 44.9 µM, the TGI [1] is reported as 69.1 µM and the TGI [2] is reported as over 100 µM. For the same compound, the TGI [3] was 35.1 µM, the TGI [9] was 57.5 µM and the TGI [4] was 31.8 µM. For the same compound, the TGI [5] was 39.8 µM and the TGI [7] was 27.8 µM.
Work on `O=C(c1ccccc1)[C@H]1Nc2ccc(Cl)cc2[C@H]2CCC[C@@H]12` yielded a TGI [8] of 91.7 µM, a TGI [1] of over 100 µM and a TGI [2] of 59.6 µM. It also gave a TGI [3] of over 100 µM, a TGI [9] of over 100 µM and a TGI [4] of 19.9 µM. For the same compound, the TGI [5] was 75.9 µM, the TGI [6] was over 100 µM and the TGI [7] was over 100 µM.
`CCOC(=O)C1(C)CCC(C(C(=O)O)C(=O)O)CC1=O` (configuration not stated) was tested, and the TGI [8] was over 100 µM, the TGI [1] was over 100 µM and the TGI [2] was over 100 µM. For the same compound, the TGI [3] was over 100 µM, the TGI [9] was over 100 µM and the TGI [4] was over 100 µM. The TGI [5] was over 100 µM, the TGI [6] was over 100 µM and the TGI [7] was over 100 µM.
For `c1ccc(C(c2ccccc2)c2ccccn2)cc1`, the TGI [8] was over 100 µM, the TGI [1] was over 100 µM and the TGI [2] was over 100 µM. It also gave a TGI [3] of over 100 µM, a TGI [9] of over 100 µM and a TGI [4] of over 100 µM. It also gave a TGI [5] of over 100 µM and a TGI [7] of over 100 µM.
With `Cn1c(=O)c2nc3sc4c(n3c2n(C)c1=O)C(=O)c1ccccc1C4=O` the TGI [10] was over 61.5 µM, the TGI [8] was over 100 µM and the TGI [1] was over 100 µM. It also gave a TGI [2] of over 100 µM, a TGI [3] of over 100 µM and a TGI [9] of over 100 µM. It also gave a TGI [4] of over 54.7 µM, a TGI [5] of over 81.4 µM and a TGI [6] of over 73 µM. It also gave a TGI [11] of 23.6 µM and a TGI [7] of over 100 µM.
`COc1cc(/C=C2\NC(=O)C(Cc3cc(OC)c(OC)c(C)c3OC)N(C(C)=O)C2=O)c(OC)c(C)c1OC` (configuration not stated) showed a TGI [8] of over 100 µM, a TGI [1] of over 100 µM and a TGI [2] of 99.6 µM. For the same compound, the TGI [3] was over 100 µM, the TGI [9] was over 100 µM and the TGI [4] was over 100 µM. The TGI [5] was over 100 µM, the TGI [6] was over 100 µM and the TGI [7] was over 100 µM.
`O=C(CCCC(=O)Nc1ccc(Cl)cc1Cl)CC(=O)c1ccc2ccccc2c1` gave a TGI [8] of over 100 µM, a TGI [1] of over 100 µM and a TGI [2] of over 100 µM. It also gave a TGI [3] of over 100 µM, a TGI [9] of over 100 µM and a TGI [4] of over 100 µM. It also gave a TGI [5] of over 100 µM and a TGI [7] of over 100 µM.
`O=C1c2ccccc2N2OC3(N4CCOCC4)CCCC3C12c1ccccc1` (configuration not stated) showed a TGI [8] of over 100 µM, a TGI [1] of over 100 µM and a TGI [2] of over 100 µM. For the same compound, the TGI [9] was over 100 µM, the TGI [5] was over 100 µM and the TGI [6] was over 100 µM. For the same compound, the TGI [7] was over 100 µM.
Work on `OC(c1ccccc1Br)(c1ccccc1Br)C(F)(F)F` yielded a TGI [8] of 33.1 µM, a TGI [1] of 38.2 µM and a TGI [2] of over 100 µM. It also gave a TGI [3] of 30.9 µM, a TGI [9] of 52.3 µM and a TGI [4] of 40.2 µM. The TGI [5] was over 100 µM, the TGI [6] was 45.9 µM and the TGI [7] was 57.7 µM.
In the case of `CC1NOC(=O)C1N=Nc1ccc(Cl)cc1Cl` (configuration not stated), the TGI [8] is reported as 39 µM, the TGI [1] is reported as 53.9 µM and the TGI [2] is reported as 50.4 µM. For the same compound, the TGI [3] was 32.6 µM, the TGI [9] was over 100 µM and the TGI [4] was 66.1 µM. It also gave a TGI [5] of 56.5 µM, a TGI [6] of 71.9 µM and a TGI [7] of over 100 µM.
Work on `CC12OC(=O)C(C#N)C1(C)C1C(=O)CCCC12` (configuration not stated) yielded a TGI [8] of over 100 µM, a TGI [1] of over 100 µM and a TGI [2] of over 100 µM. It also gave a TGI [3] of over 100 µM, a TGI [9] of over 100 µM and a TGI [4] of over 100 µM. The TGI [5] was over 100 µM and the TGI [7] was over 100 µM.
For `CCCCCCCCOCC(COC(=O)CCCCCCC)OC(=O)CCCCCCC` (configuration not stated), the TGI [8] was over 100 µM, the TGI [1] was over 100 µM and the TGI [2] was over 100 µM. For the same compound, the TGI [9] was over 100 µM, the TGI [4] was over 100 µM and the TGI [5] was over 100 µM. For the same compound, the TGI [6] was over 100 µM and the TGI [7] was over 100 µM.
`C1CCC(N=C2N(C3CCCCC3)C(=NC3CCCCC3)N2C2CCCCC2)CC1` showed a TGI [8] of over 100 µM, a TGI [1] of over 100 µM and a TGI [2] of over 100 µM. The TGI [3] was over 100 µM, the TGI [9] was over 100 µM and the TGI [4] was over 100 µM. The TGI [5] was over 100 µM, the TGI [6] was over 100 µM and the TGI [7] was over 100 µM.
`NC(N)=NCCCC(NCc1c2ccccc2nc2ccccc12)C(=O)O` (configuration not stated) showed a TGI [10] of over 100 µM, a TGI [8] of over 100 µM and a TGI [1] of 79.4 µM. The TGI [3] was over 100 µM, the TGI [9] was 86.7 µM and the TGI [4] was 97.9 µM. The TGI [5] was over 84.7 µM, the TGI [6] was over 83.2 µM and the TGI [11] was over 100 µM. For the same compound, the TGI [7] was over 100 µM.
In the case of `COc1ccc(/C=C2\C(=O)N(NC(C)=O)c3ccccc32)cc1`, the TGI [8] is reported as over 100 µM, the TGI [1] is reported as over 100 µM and the TGI [2] is reported as over 100 µM. It also gave a TGI [3] of over 100 µM, a TGI [9] of over 100 µM and a TGI [4] of over 100 µM. For the same compound, the TGI [5] was over 100 µM and the TGI [7] was over 100 µM.

Source: PubChem BioAssay (NCI)
